Results on two compounds are retold here after PMC5838563, “Compounds producing an effective combinatorial regimen for disruption of HIV‐1 latency” (EMBO Molecular Medicine, 2017).

Format in all cases: cell-based
For test [1], the system named is SP1, NF‐κB p65, IκBα, total H3K9‐me3 and H3K9ac in Jurkat^Tat reporter cells. Nature of the test: Western blot of SP1, NF‐κB p65, IκBα and global H3K9 modifications. As to the method:
(§1) Figure 6 Effect of PH02 on histone modification at HIV‐1 LTR and global histone modification • Chromatin immunoprecipitation assays were performed using Jurkat^Tat LTR‐DsRed, clone 11. The cells were treated for 24 h with PH02 and/or PEP005, and ChIP was performed using antibodies against histone H3K9‐me3 (left panel) and histone H3K9‐ac (right panel). The results are presented relative to ChIP with antihistone H3 antibodies. The results are determined from three biological replicates (n = 3). Statistical significance, as determined by ratio paired t‐test, is indicated as follows: ***P < 0.0005; ****P < 0.00005. The exact P‐values are indicated in Appendix Table S1. • Western blot analysis was performed using Jurkat^Tat LTR‐DsRed, clone 11, to detect the expression of SP1, NF‐κB p65, IκBα, total H3K9‐me3, and H3K9ac. The cells were treated for 24 h with PH02 and/or PEP005. Source data are available online for this figure.
Figure EV3 Effect of PH compounds on SP1, NF‐κB p65, and IκBα expression Jurkat^Tat LTR‐Luciferase cells were treated with a single concentration (3 μM) of each PH compound for the indicated time points. Whole‐cell protein extract was separated by SDS–PAGE, transferred to nitrocellulose membrane, and blotted with antibodies against SP1, NF‐κB p65, and IκBα. GAPDH was used as the loading control. Source data are available online for this figure.
5 × 10^6 luciferase reporter cells/Jurkat^Tat LTR‐DsRed, clone 11, were treated with the indicated concentration of the compounds. After treatment, the cells were lysed in RIPA buffer (50 mM Tris–HCl, pH 8.0, 150 mM NaCl, 1% NP‐40, 0.5% sodium deoxycholate, 0.1% SDS), supplemented with 1× protease inhibitor cocktail and 1 mM DTT, to collect the whole‐cell protein extract, which was further quantified using Bradford assay. A 30 μg equivalent of the protein extract was mixed with the 5× SDS–PAGE sample buffer and boiled for 5 min, and then, it was separated using 12% SDS–PAGE gel and transferred to a nitrocellulose membrane. […]
(In general: A western blot detects proteins with antibodies after separation by electrophoresis.)

Test [2] has as its system replication‐competent HIV‐1 provirus in CD4^+ T cells from HIV‐1‐infected patients. Nature of the test: Quantitative viral outgrowth assay (qVOA). As to the method:
However, 1 nM PEP005 in combination with 1 μM PH02 produced a significant response that was double that produced by 1 μM PH02 on its own (Fig 10A). We confirmed this effect using a quantitative viral outgrowth assay (qVOA) with pools of CD4^+ T cells isolated from HIV‐1‐infected patient samples (Fig EV5, Appendix Table S5). […] We conclude that this combination of treatments may represent a promising candidate therapy to target persistent latent viral infection.
Figure EV5 Assay for reactivation of HIV‐1 from latently infected cells using a quantitative viral outgrowth assay Resting CD4^+ T cells from patient samples were serially diluted in 6‐ or 24‐well plates in duplicate (top) and treated as indicated (left). After 24 h, MOLT4/CCR5 cells were added to the wells, and the cultures incubated a further 14 days. HIV‐1 RNA was detected in filtered culture supernatants using RT–qPCR, and wells producing the specific PCR product are indicated in green. […]
For quantitative viral outgrowth assays (qVOA), serial dilutions of CD4^+ T lymphocytes from pooled HIV‐infected patients were plated in 6‐ or 24‐well plates (1 × 10^6 cells or < 1 × 10^6 cells, respectively). […] Viral RNA was isolated from the culture supernatants and analyzed as described above. […]

In test [3] the test system is HIV‐1 LTR chromatin (Jurkat^Tat LTR‐DsRed clone #11). In words: ChIP of histone H3K9 modifications at the HIV‐1 LTR. As to the method: To characterize induction of HIV‐1 expression caused by PH02 in more detail, we employed chromatin immunoprecipitation (ChIP) assays to examine changes at the LTR promoter using Jurkat^Tat LTR‐DsRed clone #11.
as §1
Jurkat^Tat LTR‐DsRed cells, clone #11, were treated with 3 μM PH02 and/or 10 nM PEP005, for 24 h, and the cells cross‐linked with 1% formaldehyde for 10 min at RT. The cells were resuspended in cold NP‐40 lysis buffer (0.5% NP‐40, 10 mM Tris–HCl pH 7.8, 3 mM MgCl2) containing freshly added protease inhibitor cocktail (PIC, Sigma‐Aldrich) and spun to collect nuclei. The nuclei were sonicated in buffer containing 10 mM Tris–HCl (pH 7.8), 10 mM EDTA, and 0.5% SDS to obtain DNA fragments of 200–2,000 bp using a Bioruptor sonicator (Diagenode). The chromatin fractions were precleared with protein A/G agarose beads (Millipore) and immune‐precipitated with anti‐H3K9‐me3, anti‐H3K9‐ac, or anti‐H3 antibodies (Abcam) according to the manufacturer's instructions. Cross‐links were reversed by incubating the samples at 68°C for 2 h, and DNA was purified using QIAquick PCR columns and assayed by qPCR using primers specific to the HIV‐1 LTR core promoter, AGTGGCGAGCCCTCAGAT, and […]. Results are presented as normalized relative to that for histone H3 immunoprecipitates.

Setting [4] is: Jurkat^Tat LTR‐DsRed clone 11, 24 h.
[5] abbreviates: single treatment, 3 μM PH02 or 10 nM PEP005, 24 h.

For `CC(=O)Oc1ccccc1N(C=C1Sc2ccccc2C1=O)C(C)=O` [PH02, 2‐{acetyl[(3‐oxo‐1‐benzothien‐2(3H)‐ylidene)methyl]amino}phenyl acetate], the “expression of NF‐κB p65 and SP1” value in test [1] (setting [4]) was “mostly unaffected”. Moreover, in test [1] (setting [4]), the “global acetylation or methylation of lysine 9 on H3” value is “do not observe a significant effect”. Moreover, the virus replication entry in test [2] (1 μM PH02 + 1 nM PEP005, 24 h) is “produced significant virus replication”. In addition, the “H3K9 acetylation on the LTR” value is on record as “significant elevation” in test [3] (3 μM PH02 + 10 nM PEP005, 24 h) and “accumulation of H3K9 acetylation” in test [3] (setting [5]). Moreover, the “H3K9‐3me at the LTR relative to total histone H3” value in test [3] (3 μM PH02 + 10 nM PEP005, 24 h, versus either drug separately) is reported as “equivalent reduction”; in test [3] (setting [5]), “significantly reduced”.

As to `C/C=C(/C)C(=O)O[C@H]1C(C)=C[C@]23C(=O)[C@@H](C=C(CO)[C@@H](O)[C@]12O)[C@H]1[C@@H](C[C@H]3C)C1(C)C` [PEP005, ingenol‐3‐angelate, reference compound], the IκBα level entry in test [1] (Jurkat^Tat LTR‐DsRed clone 11, 24‐h treatment, alone or with PH02) was “causes loss of IκBα”. The reactivation of virus result in test [2] (1 nM PEP005 alone, 24 h) is given as “did not produce reactivation of virus”. For the same compound, in test [3] (setting [5]), the “H3K9 acetylation on the LTR” value was “accumulation of H3K9 acetylation” and the “H3K9‐3me at the LTR relative to total histone H3” value is given as “a similar effect was observed”.
